Reference: US8772322B2, “Synergistic preservative compositions” (ISP Investments Inc., priority 2010, dated 2014)

Legend:
Assay type in all cases: cell-based
[1] = tested on: Staphylococcus aureus (ATCC 6538); assay: MIC / growth test of aqueous biocide mixtures in TSB, 24 hr at 32° C., with synergy index (Kull); on growth: key: growth of the microorganism took place (symbol '+'); or not (symbol '−')
Experimental: (§1) Synergy is determined from combination studies of the different actives according to the method of calculation put forward by F. C. Kull et al, Applied Microbiology, 9:538 (1961): Synergy Index (SI)=Qa/QA+Qb/QB
(§2) Where • Qa=concentration of component A in the biocide composition showing the desired effect (e.g. no growth of microorganisms) • QA=concentration of component A as single component showing the desired effect • Qb=concentration of component B in the biocide composition showing the desired effect and • QB=concentration of component B as single component showing the desired effect
(§3) For a system consisting of three active components the synergy index is calculated by the formula: Synergy Index (SI)=Qa/QA+Qb/QB+Qc/QC
(§4) Synergy in a composition then exists when the synergy index is less than 1.
(§5) In this example synergy is shown against the microorganism Staphylococcus aureus (ATCC 6538). For this purpose MIC values were determined for each individual active as well as for different combinations of the 3 actives. MIC (Minimum Inhibitory Concentration) defines the lowest concentration level of a substance to inhibit the growth of a given organism.
Subsequently the activity of these mixtures were tested against Staphylococcus aureus.
(§6) The cell density of S. aureus was 10*5 cells/ml. The incubation time was 24 hr at 32° C.
(§7) TSB (Tryptic Soy […]) was used as nutrient medium.
In this way the table represents the MIC value for each tested combination.

[2] = tested on: Escherichia coli (ATCC 8793); assay: MIC / growth test of aqueous biocide mixtures, same protocol as Example 1, with synergy index; on growth: key: growth of the microorganism took place (symbol '+'); or not (symbol '−')
Experimental: as §1, §2, §3, §4, §5, §6, §7
In this example synergy is shown against the microorganism Escherichia coli (ATCC 8793).
(§8) The test protocol is the same as described under Example 1.
In Table 6 the synergy index has been calculated.

[3] = tested on: Pseudomonas aeruginosa (ATCC 9027); assay: as above; on growth: key: growth of the microorganism took place (symbol '+'); or not (symbol '−')
Experimental: as §1, §2, §3, §4, §5, §6, §7
In this example synergy is shown against the microorganism Pseudomonas aeruginosa (ATCC 9027).
as §8
In Table 4 the synergy index has been calculated.

[4] = single active, incubation time 24 hours
[5] = in combination with IPBC 3.9 + CMIT/MIT 0.75 ppm
[6] = in combination with IPBC 7.8 + CMIT/MIT 0.75 ppm
[7] = in combination with IPBC 15.6 + CMIT/MIT 0.75 ppm
[8] = in combination with IPBC 31.2 + CMIT/MIT 0.75 ppm

O=c1[nH]sc2ccccc12 [BIT, 1,2-Benzisothiazolin-3-one]
growth ([1]; BIT 0.01 ppm, IPBC 0, without CMIT/MIT): + | growth ([1]; BIT 0.03 ppm, IPBC 0, without CMIT/MIT): + | growth ([1]; BIT 0.05 ppm, IPBC 0, without CMIT/MIT): + | growth ([1]; BIT 0.1 ppm, IPBC 0, without CMIT/MIT): + | growth ([1]; BIT 0.19 ppm, IPBC 0, without CMIT/MIT): + | growth ([1]; BIT 0.39 ppm, IPBC 0, without CMIT/MIT): + | growth ([1]; BIT 0.78 ppm, IPBC 0, without CMIT/MIT): + | growth ([1]; BIT 1.56 ppm, IPBC 0, without CMIT/MIT): + | growth ([1]; BIT 3.12 ppm, IPBC 0, without CMIT/MIT): − | growth ([1]; BIT 3.12 ppm, single active): + | growth ([1]; BIT 6.25 ppm, IPBC 0, without CMIT/MIT): − | growth ([1]; BIT 6.25 ppm, single active): − | growth ([1]; BIT 12.5 ppm, IPBC 0, without CMIT/MIT): − | growth ([1]; BIT 12.5 ppm, single active): − | growth ([1]; BIT 25 ppm, single active): − | growth ([1]; BIT 50 ppm, single active): − | growth ([1]; BIT 100 ppm, single active): − | MIC BIT con. Qb ([1]; in combination with IPBC 0.49 + CMIT/MIT 1.5 ppm): 0.78 ppm | MIC BIT con. Qb ([1]; in combination with IPBC 0.98 + CMIT/MIT 1.5 ppm): 0.78 ppm | MIC BIT con. Qb ([1]; in combination with IPBC 1.95 + CMIT/MIT 0.37 ppm): 1.56 ppm | MIC BIT con. Qb ([1]; in combination with IPBC 1.95 + CMIT/MIT 1.5 ppm): 0.78 ppm | MIC BIT con. Qb ([1]; in combination with IPBC 3.9 + CMIT/MIT 0.37 ppm): 1.56 ppm | MIC BIT con. Qb ([1]; in combination with IPBC 3.9 + CMIT/MIT 1.5 ppm): 0.39 ppm | MIC BIT con. Qb ([1]; in combination with IPBC 3.9 ppm, CMIT/MIT 0): 1.56 ppm | MIC BIT con. Qb ([1]; in combination with IPBC 7.8 + CMIT/MIT 0.37 ppm): 1.56 ppm | MIC BIT con. Qb ([1]; in combination with IPBC 7.8 + CMIT/MIT 1.5 ppm): 0.01 ppm | MIC BIT con. Qb ([1]; in combination with IPBC 7.8 ppm, CMIT/MIT 0): 0.78 ppm | MIC as single component (QA, QB, Qc) [1, 4]: 6.25 ppm | growth ([2]; BIT 1.56 ppm, single active): + | growth ([2]; BIT 3.12 ppm, single active): + | growth ([2]; BIT 6.25 ppm, single active): − | growth ([2]; BIT 12.5 ppm, single active): − | growth ([2]; BIT 25 ppm, single active): − | growth ([2]; BIT 50 ppm, single active): − | growth ([2]; BIT 100 ppm, single active): − | MIC BIT con. Qb ([2]; in combination with IPBC 0.98 + CMIT/MIT 0.75 ppm): 3.12 ppm | MIC BIT con. Qb ([2]; in combination with IPBC 1.95 + CMIT/MIT 0.75 ppm): 3.12 ppm | MIC BIT con. Qb ([2]; in combination with IPBC 3.9 + CMIT/MIT 0.19 ppm): 3.12 ppm | MIC BIT con. Qb [2, 5]: 3.12 ppm | MIC BIT con. Qb ([2]; in combination with IPBC 7.8 + CMIT/MIT 0.19 ppm): 3.12 ppm | MIC BIT con. Qb [2, 6]: 3.12 ppm | MIC BIT con. Qb ([2]; in combination with IPBC 15.6 + CMIT/MIT 0.19 ppm): 3.12 ppm | MIC BIT con. Qb [2, 7]: 3.12 ppm | MIC BIT con. Qb ([2]; in combination with IPBC 31.2 + CMIT/MIT 0.19 ppm): 3.12 ppm | MIC BIT con. Qb [2, 8]: 0.78 ppm | MIC BIT con. Qb ([2]; in combination with IPBC 62.5 + CMIT/MIT 0.19 ppm): 1.56 ppm | MIC BIT con. Qb ([2]; in combination with IPBC 62.5 ppm, CMIT/MIT 0): 3.12 ppm | MIC as single component (QA, QB, QC) [2, 4]: 6.25 ppm | growth ([3]; BIT 6.25 ppm, single active): + | growth ([3]; BIT 12.5 ppm, single active): + | growth ([3]; BIT 25 ppm, single active): + | growth ([3]; BIT 50 ppm, single active): − | growth ([3]; BIT 100 ppm, single active): − | growth ([3]; BIT 200 ppm, single active): − | MIC BIT con. Qb [3, 5]: 12.5 ppm | MIC BIT con. Qb [3, 6]: 12.5 ppm | MIC BIT con. Qb [3, 7]: 12.5 ppm | MIC BIT con. Qb [3, 8]: 12.5 ppm | MIC BIT con. Qb ([3]; in combination with IPBC 62.5 + CMIT/MIT 0.75 ppm): 6.25 ppm | MIC BIT con. Qb ([3]; in combination with IPBC 125 + CMIT/MIT 0.75 ppm): 6.25 ppm | MIC BIT con. Qb ([3]; in combination with IPBC 125 ppm, CMIT/MIT 0): 25 ppm | MIC as single component (QA, QB, QC) [3, 4]: 50 ppm
